Test results from patent US20140045697A1, “ANDROSTANEDIOL DERIVATIVES AS PLANT GROWTH REGULATOR COMPOUNDS” (priority 2011, published 2014).

Experiments:
[1] = test system: Phaseolus vulgaris L. cv. Pinto; experiment: Bean second and third internode elongation bioassay (glass house); format: in vivo; details: for % increase compared with control, Total elongation (internode 2 + internode 3) / % increase compared with control, Internode 2 / % increase compared with control, Internode 3: applied through wound site, scored after 10 days; for % increase compared with control, Internode 2 / % increase compared with control, Internode 3: 8 replicates; for elongation of internode 3 (in words) / elongation of internodes by rate (in words): Table 2; for elongation of internode 3 (in words): standard at low concentrations; for elongation of internodes by rate (in words): rates 6, 20 and 200 per plant
Procedure: Bean seeds of Phaseolus vulgaris L. cv. Pinto were germinated in drench soil in 140 ml pots; pots with 7-day old seedlings were thinned out to one seedling per pot. Young plants of 12-14 days with 2-3 mm long second internodes were used in bioassay screening experiments. Germination, early plant growth as well the screening of growth symptoms of young plants after application of compounds of formula (I) were done under similar glass house conditions: temperature 22° C. day/18° C. night, humidity 60%, day length 15 h day/9 h night. Plants were watered manually on a daily basis, as needed.
Compounds of formula (I) were applied through a wound site using a micropipette. The wound site was introduced through removal of one of the twin leaves of the first set of true leaves. Small amounts of compounds were delivered at a time. The wound site was sealed with […] of Vaseline that was applied using a cotton ear bud. Compounds of formula (I) were dissolved in 99% ethanol and for the control/check a similar volume was used as for all treatments and in this case, the solution only contained 99% ethanol. Dilutions of stock solutions were made with distilled water. Eight replicates were included per treatment, including for the control. The scoring of growth elongation effects was performed after 10 days.
Growth promotion of bean plants by compounds of formula (I) was tested by scoring elongation of the second and third internode of bean plants. Scoring of growth stimulation effects was done by careful cutting and measuring the length of the two internodes. All compounds were tested at three rates (in […] per plant): 6, 20 and 200. Values represent the average percentage increase in stem elongation compared with the untreated control.

maize = experiment: Field trials on maize at 2 locations in South Africa (Kransfontein, Lindley), spray application at 5-6 leaf growth stage; format: in vivo; details: for Number of cobs per plot / Plant height 9-10 leaf stage / Plant height 10 leaf stage / Yield / Plant height 6-7 leaf stage / Plant height 9 leaf stage: mean of 6 replicates
Procedure: Field trials were carried out at 2 locations in South Africa on maize. Treatments as shown in tables 3 and 4 were applied by spray application at 5-6 leaf growth stage. Assessments were made of plant height, number of maize cobs per plot, and total maize yield at the end of the trial. The results in Table 3 and 4 are the mean of 6 replicates per treatment. The standard is an analog of the Formula I of the present invention, as described in WO2009/115060 (formula IV).

## C[C@]12CCC3[C@@H](CC(F)(F)[C@@]4(F)C[C@H](O)CC[C@]34C)C1CC[C@@H]2O (stereo partly drawn) [Compound P1, 5-Fluoro-6α,6β-difluoro-3α,17β-dihydroxy-5α-androstan]
[1]; 6 μg per plant
  % increase compared with control, Total elongation (internode 2 + internode 3): 0%
  % increase compared with control, Internode 2: 0%
  % increase compared with control, Internode 3: 0%
[1]; 20 μg per plant
  % increase compared with control, Total elongation (internode 2 + internode 3): 160%
  % increase compared with control, Internode 2: 44%
  % increase compared with control, Internode 3: 116%
[1]; 200 μg per plant
  % increase compared with control, Total elongation (internode 2 + internode 3): 108%
  % increase compared with control, Internode 2: 30%
  % increase compared with control, Internode 3: 78%
[1]
  elongation of internode 3 (in words): strong elongation of internode 3
  elongation of internodes by rate (in words): at the highest two rates, but not at the lowest rate

## C[C@]12CCC3[C@@H](CC(F)(F)[C@H]4C[C@H](O)CC[C@]34C)C1CC[C@@H]2O (stereo partly drawn) [Compound P2, 6α,6β-difluoro-3α,17β-diol-5α-androstan]
[1]; 6 μg per plant
  % increase compared with control, Total elongation (internode 2 + internode 3): 0%
  % increase compared with control, Internode 2: 0%
  % increase compared with control, Internode 3: 0%
[1]; 20 μg per plant
  % increase compared with control, Total elongation (internode 2 + internode 3): 160%
  % increase compared with control, Internode 2: 50%
  % increase compared with control, Internode 3: 110%
[1]; 200 μg per plant
  % increase compared with control, Total elongation (internode 2 + internode 3): 54%
  % increase compared with control, Internode 2: 31%
  % increase compared with control, Internode 3: 23%
[1]
  elongation of internode 3 (in words): strong elongation of internode 3
  elongation of internodes by rate (in words): at the highest two rates, but not at the lowest rate

## CO[C@]12C[C@H](O)CC[C@]1(C)[C@H]1CC[C@]3(C)[C@@H](O)CC[C@H]3[C@@H]1CC2=O [Compound P3, 5-methoxy-3α,17β-dihydroxyl-5α-androstan-6-one]
[1]; 6 μg per plant
  % increase compared with control, Total elongation (internode 2 + internode 3): 17%
  % increase compared with control, Internode 2: 13%
  % increase compared with control, Internode 3: 4%
[1]; 20 μg per plant
  % increase compared with control, Total elongation (internode 2 + internode 3): 54%
  % increase compared with control, Internode 2: 6%
  % increase compared with control, Internode 3: 48%
[1]; 200 μg per plant
  % increase compared with control, Total elongation (internode 2 + internode 3): 113%
  % increase compared with control, Internode 2: 43%
  % increase compared with control, Internode 3: 70%
[1]
  elongation of internode 3 (in words): strong elongation of internode 3
  elongation of internodes by rate (in words): elongation of both internodes at all three rates tested
maize; Kransfontein, 0.3 g AI/ha
  Number of cobs per plot, % increase compared to untreated control: 0.5%
  Plant height 9-10 leaf stage, % increase compared to untreated control: 6.4%
  Plant height 10 leaf stage, % increase compared to untreated control: 3.8%
  Yield, % increase compared to untreated control: 1.7%
  Number of cobs per plot: 35.0
  Plant height 9-10 leaf stage: 38.0 cm
  Plant height 10 leaf stage: 49.5 cm
  Yield: 4203.2 kg/ha
maize; Kransfontein, 0.6 g AI/ha
  Number of cobs per plot, % increase compared to untreated control: 7.7%
  Plant height 9-10 leaf stage, % increase compared to untreated control: 3.1%
  Plant height 10 leaf stage, % increase compared to untreated control: 4.2%
  Yield, % increase compared to untreated control: 2.3%
  Number of cobs per plot: 37.5
  Plant height 9-10 leaf stage: 36.8 cm
  Plant height 10 leaf stage: 49.7 cm
  Yield: 4227.3 kg/ha
maize; Lindley, 0.3 g AI/ha
  Number of cobs per plot, % increase compared to untreated control: 2.0%
  Plant height 6-7 leaf stage, % increase compared to untreated control: 4.8%
  Plant height 9 leaf stage, % increase compared to untreated control: 5.9%
  Yield, % increase compared to untreated control: 3.3%
  Number of cobs per plot: 60.5
  Plant height 6-7 leaf stage: 21.8 cm
  Plant height 9 leaf stage: 32.3 cm
  Yield: 1115.9 kg/ha
maize; Lindley, 0.6 g AI/ha
  Number of cobs per plot, % increase compared to untreated control: 4.5%
  Plant height 6-7 leaf stage, % increase compared to untreated control: 3.4%
  Plant height 9 leaf stage, % increase compared to untreated control: 8.9%
  Yield, % increase compared to untreated control: 3.1%
  Number of cobs per plot: 62.0
  Plant height 6-7 leaf stage: 21.5 cm
  Plant height 9 leaf stage: 33.2 cm
  Yield: 11099.4 kg/ha

## CC(C)[C@@H](C)[C@@H](O)[C@H](O)[C@@H](C)[C@H]1CC[C@H]2[C@@H]3COC(=O)[C@H]4C[C@H](O)[C@H](O)C[C@]4(C)[C@H]3CC[C@]12C [Standard, 24-epi-brassinolide, reference compound]
[1]; 6 μg per plant
  % increase compared with control, Total elongation (internode 2 + internode 3): 154%
  % increase compared with control, Internode 2: 150%
  % increase compared with control, Internode 3: 4%
[1]
  elongation of internode 3 (in words): almost no elongation of the third internode
maize; Kransfontein, 0.3 g AI/ha
  Number of cobs per plot, % increase compared to untreated control: −4.3%
  Plant height 9-10 leaf stage, % increase compared to untreated control: 1.7%
  Plant height 10 leaf stage, % increase compared to untreated control: 2.1%
  Yield, % increase compared to untreated control: −2.8%
  Number of cobs per plot: 33.3
  Plant height 9-10 leaf stage: 36.3 cm
  Plant height 10 leaf stage: 48.7 cm
  Yield: 4017.9 kg/ha
maize; Kransfontein, 0.6 g AI/ha
  Number of cobs per plot, % increase compared to untreated control: −2.9%
  Plant height 9-10 leaf stage, % increase compared to untreated control: 3.6%
  Plant height 10 leaf stage, % increase compared to untreated control: 3.4%
  Yield, % increase compared to untreated control: −3.6%
  Number of cobs per plot: 33.8
  Plant height 9-10 leaf stage: 37.0 cm
  Plant height 10 leaf stage: 49.3 cm
  Yield: 3985.2 kg/ha
maize; Lindley, 0.3 g AI/ha
  Number of cobs per plot, % increase compared to untreated control: 1.1%
  Plant height 6-7 leaf stage, % increase compared to untreated control: 3.4%
  Plant height 9 leaf stage, % increase compared to untreated control: 1.6%
  Yield, % increase compared to untreated control: 2.0%
  Number of cobs per plot: 60.0
  Plant height 6-7 leaf stage: 21.5 cm
  Plant height 9 leaf stage: 31.0 cm
  Yield: 10976.9 kg/ha
maize; Lindley, 0.6 g AI/ha
  Number of cobs per plot, % increase compared to untreated control: 2.5%
  Plant height 6-7 leaf stage, % increase compared to untreated control: 1.9%
  Plant height 9 leaf stage, % increase compared to untreated control: 2.6%
  Yield, % increase compared to untreated control: 1.2%
  Number of cobs per plot: 60.8
  Plant height 6-7 leaf stage: 21.2 cm
  Plant height 9 leaf stage: 31.3 cm
  Yield: 10890.5 kg/ha
